# Measurements taken from US10172814B2, “Substituted pyridyl-cycloalkyl-carboxylic acids, compositions containing them and medical uses thereof” (BAYER PHARMA AKTIENGESELLSCHAFT, priority 2014, dated 2019).
# Target: human PTGES (Homo sapiens (Human), UniProt O14684)
# Assay: Human PTGES biochemical enzyme inhibition assay (conversion of PGH2 to PGE2, TR-FRET)
# Details: Enzymatic conversion of PGH2 to PGE2; read-out: Human PTGES IC50
# Experimental: Human PTGES Biochemical Enzyme Inhibition Assay:
# PTGES (Microsomal prostaglandin E synthase 1) is an enzyme that converts prostaglandin H2 (PGH2) to prostaglandin E2 (PGE2) in the presence of reduced glutathione (GSH).
# Recombinant proteins (human isoforms) of PTGES containing a FLAG tag, expressed in baculovirus infected insect cells (Hi-5) and purified by affinity chromatography was used as enzyme in the assay. Substrate was prostaglandin H2 (Cayman Chemicals).
# 4 ul of a solution of human PTGES in assay buffer [100 mM sodium phosphate pH 7.2, 2.5 mM Glutathion reduced, 1 mM EDTA, 0.01% BSA, 0.4 mM DTT, 0.15 mM n-dodecylmaltoside] was added to the well containing test compound and incubated for 15-20 minutes to allow binding of the compound to the enzyme prior to the enzymatic reaction. The reaction was started by addition of 1 ul of an ice cold solution containing PGH2 (40 nM in assay buffer resulting in a final concentration of 8 nM PGH2 in the assay). […] The concentration of each isoform of PTGES was adapted to the activity of the respective enzyme preparation to maintain linear reaction properties within the reaction time. […] The reaction was stopped by addition of 1 ul of a solution containing 15 mM SnCl2 and 400 mM KF in water. SnCl2 converts the remaining unstable PGH2 to stable PGF2alpha. Then, 3 ul of the a first detection solution containing PGE2-D2 (Cisbio Bioassays, TR-FRET reagent, diluted according to the manufacturer's recommendation, typically 1:20 in reconstitution buffer) was added. […] The resulting mix was incubated overnight at 4° C. to allow the formation of a complex of PGE2 and the detection reagents. […] Dilution series were made prior to the assay in a 100 fold concentrated form by serial dilution. IC50 values were calculated by 4-Parameter fitting.
# Sequence of human PTGES (O14684 whole entry): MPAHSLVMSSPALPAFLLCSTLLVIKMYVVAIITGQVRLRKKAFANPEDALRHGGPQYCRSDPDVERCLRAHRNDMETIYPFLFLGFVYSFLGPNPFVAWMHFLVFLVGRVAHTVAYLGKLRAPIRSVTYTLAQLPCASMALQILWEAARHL
row,SMILES,IC50 [nM]
1,"Cc1cc(C(C(=O)Nc2cccc(CCC(=O)O)c2C)C2CCCC2)c(F)cc1-c1cnc(C)c(Cl)c1 (racemic) [Example 182, (R/S) 3-[3-({[4-(5-chloro-6-methylpyridin-3-yl)-2-fluoro-5-methylphenyl](cyclopentyl)acetyl}amino)-2-methylphenyl]propanoic acid]",741
2,"CCC(CC(=O)O)c1cccc(NC(=O)C(c2ccc(-c3cnc(C)c(C(F)(F)F)c3)c(F)c2)C2CCCC2)c1C (single isomer, unassigned) [Example 201]",6.57
3,"Cc1c(NC(=O)C(c2ccc(-c3cncc(Cl)c3)cc2)C2CCC2)cccc1C(C)CC(=O)O (single isomer, unassigned; stereoisomer 3) [Example 138]",2040
4,"Cc1c(NC(=O)C(c2ccc(-c3cncc(C(F)(F)F)c3)c(F)c2)C2CCCC2)cccc1N(C)CC(=O)O (single isomer, unassigned; (-)) [Example 188, (−) N-{3-[(cyclopentyl{3-fluoro-4-[5-(trifluoromethyl)pyridin-3-yl]phenyl}acetyl)amino]-2-methylphenyl}-N-methylglycine, Single Enantiomer]",24.2
5,"Cc1c(CCC(=O)O)cccc1NC(=O)C(c1ccc(-c2cncc(C3CC3)c2)cc1)C1CCCC1 (racemic) [Example 14, (R/S) 3-[3-({Cyclopentyl[4-(5-cyclopropylpyridin-3-yl)phenyl]acetyl}amino)-2-methylphenyl]propanoic acid]",115
6,"Cc1c(CCC(=O)O)cccc1NC(=O)C(c1ccc(-c2cncc(C(F)(F)F)c2)cc1Cl)C1CCCC1 (racemic) [Example 161, (R/S) 3-(3-{[{2-chloro-4-[5-(trifluoromethyl)pyridin-3-yl]phenyl}(cyclopentyl)acetyl]amino}-2-methylphenyl)propanoic acid]",278
7,"Cc1c(CCC(=O)O)cccc1NC(=O)C(c1ccc(-c2cnc(F)c(C(F)(F)F)c2)c(F)c1)C1CCCC1 (single isomer, unassigned; (-)) [Example 197]",19.3
8,"Cc1c(CCC(=O)O)cccc1NC(=O)C(c1cc(F)c(-c2cncc(Cl)c2)cc1F)C1CCCC1 (racemic) [Example 178, (R/S) 3-[3-({[4-(5-chloropyridin-3-yl)-2,5-difluorophenyl](cyclopentyl)acetyl}amino)-2-methylphenyl]propanoic acid]",269
9,"Cc1cncc(-c2ccc(C(C(=O)Nc3cccc(C(CC(=O)O)C4CC4)c3C)C3CCCC3)cc2)c1 (mixture of isomers) [Example 113, (3R/S)-3-[3-({(2R/S)-2-cyclopentyl-2-[4-(5-methylpyridin-3-yl)phenyl]acetyl}amino)-2-methylphenyl]-3-cyclopropylpropanoic acid]",140
10,"CCOc1cncc(-c2ccc(C(C(=O)Nc3cccc(C(C)CC(=O)O)c3C)C3CCCC3)cc2)c1 (mixture of isomers) [Example 90, (3R/S)-3-[3-({(2R/S)-2-Cyclopentyl-2-[4-(5-ethoxypyridin-3-yl)phenyl]acetyl}amino)-2-methylphenyl]butanoic acid]",108
11,"Cc1c(NC(=O)C(c2ccc(-c3cncc(C(F)F)c3)cc2)C2CCCC2)cccc1C(C)CC(=O)O (mixture of isomers) [Example 98, (3R/S)-3-(3-{[(2R/S)-2-Cyclopentyl-2-{4-[5-(difluoromethyl)pyridin-3-yl]phenyl}acetyl]amino}-2-methylphenyl)butanoic acid]",33.8
12,"Cc1c(CCC(=O)O)cccc1NC(=O)C(c1cc(F)c(-c2cncc(C(F)(F)F)c2)cc1F)C1CCCC1 (racemic) [Example 179, (R/S) 3-{3-[(cyclopentyl{2,5-difluoro-4-[5-(trifluoromethyl)pyridin-3-yl]phenyl}acetyl)amino]-2-methylphenyl}propanoic acid]",85.2
13,"Cc1c(NCC(=O)O)cccc1NC(=O)C(c1ccc(-c2cncc(C(F)(F)F)c2)cc1)C1CCCC1 (racemic) [Example 171, (R/S) N-{3-[(cyclopentyl{4-[5-(trifluoromethyl)pyridin-3-yl]phenyl}acetyl)amino]-2-methylphenyl}glycine]",319
14,"Cc1cc(C(C(=O)Nc2cccc(CCC(=O)O)c2C)C2CCCC2)c(F)cc1-c1cncc(Cl)c1 (racemic) [Example 181, (R/S) 3-[3-({[4-(5-chloropyridin-3-yl)-2-fluoro-5-methylphenyl](cyclopentyl)acetyl}amino)-2-methylphenyl]propanoic acid]",2300
15,"Cc1c(CCC(=O)O)cccc1NC(=O)C(c1ccc(-c2cncc(C(F)(F)F)c2)c(Cl)c1)C1CCCC1 (racemic) [Example 175, (R/S) 3-[3-({[3-chloro-4-(5-(trifluoromethyl)pyridin-3-yl)phenyl](cyclopentyl)acetyl}amino)-2-methylphenyl]propanoic acid]",34.6
16,"Cc1c(CCC(=O)O)cccc1NC(=O)C(c1ccc(-c2cncc(C(F)(F)F)c2)cc1)C1CCC1 (racemic) [Example 54, (R/S) 3-{3-[(Cyclobutyl{4-[5-(trifluoromethyl)pyridin-3-yl]phenyl}acetyl)amino]-2-methylphenyl}propanoic acid]",27.3
17,"CCC(CC(=O)O)c1cccc(NC(=O)C(c2ccc(-c3cncc(C)c3)cc2)C2CCCC2)c1C (racemic) [Example 104, (3R/S)-3-[3-({(2RS)-2-Cyclopentyl-2-[4-(5-methylpyridin-3-yl)phenyl]acetyl}amino)-2-methylphenyl]pentanoic acid]",95.1
18,"Cc1c(CCC(=O)O)cccc1NC(=O)C(c1ccc(-c2cncc(Cl)c2)cc1)C1CCCC1 (racemic) [Example 16, (R/S) 3-[3-({[4-(5-Chloropyridin-3-yl)phenyl](cyclopentyl)acetyl}amino)-2-methylphenyl]propanoic acid]",59.6
19,"Cc1c(CCC(=O)O)cccc1NC(=O)C(c1ccc(-c2cncc(OC3CCOCC3)c2)cc1)C1CCCC1 (racemic) [Example 15, (R/S) 3-{3-[(Cyclopentyl{4-[5-(tetrahydro-2H-pyran-4-yloxy)pyridin-3-yl]phenyl}acetyl)amino]-2-methylphenyl}propanoic acid]",114
20,"Cc1c(NC(=O)C(c2ccc(-c3cncc(F)c3)cc2)C2CCCC2)cccc1C(CC(=O)O)C1CC1 (mixture of isomers) [Example 112, (3R/S)-3-[3-({(2R/S)-2-cyclopentyl-2-[4-(5-fluoropyridin-3-yl)phenyl]acetyl}amino)-2-methylphenyl]-3-cyclopropylpropanoic acid]",51.9
21,"Cc1ncc(-c2ccc(C(C(=O)Nc3cccc(C4CC4C(=O)O)c3C)C3CCCC3)cc2)cc1Cl (stereo not shown) [Example 154, 2-[3-({2-[4-(5-chloro-6-methylpyridin-3-yl)phenyl]-2-cyclopentylacetyl}amino)-2-methylphenyl]cyclopropanecarboxylic acid]",42.8
22,"Cc1c(CCC(=O)O)cccc1NC(=O)C(c1ccc(-c2ccc(C(F)(F)F)nc2)cc1)C1CCCC1 (single isomer, unassigned; (-)) [Example 5, (−) 3-{3-[(Cyclopentyl{4-[6-(trifluoromethyl)pyridin-3-yl]phenyl}acetyl)amino]-2-methylphenyl}propanoic acid]",795
23,Cc1c(NC(=O)C(c2ccc(-c3cncc(Cl)c3)c(F)c2)C2CCC2)cccc1C(C)CC(=O)O (stereo not shown) [Example 149],52.1
24,"Cc1ncc(-c2ccc(C(C(=O)Nc3cccc(C(CC(=O)O)C4CC4)c3C)C3CCCC3)cc2)cc1Cl (mixture of isomers) [Example 108, (3R/S)-3-[3-({(2R/S)-2-[4-(5-chloro-6-methylpyridin-3-yl)phenyl]-2-cyclopentylacetyl}amino)-2-methylphenyl]-3-cyclopropylpropanoic acid]",31.9
25,"Cc1cc(-c2ccc(C(C(=O)Nc3cccc(CCC(=O)O)c3C)C3CCCC3)cc2)cnc1C (racemic) [Example 27, (R/S) 3-[3-({Cyclopentyl[4-(5,6-dimethylpyridin-3-yl)phenyl]acetyl}amino)-2-methylphenyl]propanoic acid]",90.3
26,"Cc1ncc(-c2ccc([C@H](C(=O)Nc3ccc(F)c(CCC(=O)O)c3C)C3CCCC3)cc2)cc1Cl [Example 184, 3-[3-({(2R)-2-[4-(5-chloro-6-methylpyridin-3-yl)phenyl]-2-cyclopentylacetyl}amino)-6-fluoro-2-methylphenyl]propanoic acid]",23.7
27,"CCC(CC(=O)O)c1cccc(NC(=O)[C@@H](c2ccc(-c3cncc(OC(C)C)c3)cc2)C2CCCC2)c1C (single isomer, unassigned) [Example 203]",16.7
28,"Cc1c(CCC(=O)O)cccc1NC(=O)C(c1ccc(-c2cncc(C(F)(F)F)c2)c(F)c1)C1CCCC1 (racemic) [Example 47, (R/S) 3-{3-[(Cyclopentyl{3-fluoro-4-[5-(trifluoromethyl)pyridin-3-yl]phenyl}acetyl)amino]-2-methylphenyl}propanoic acid]",15.9
